From ChEMBL document CHEMBL5604063, “ASAP - DENV-2 NS2B-NS3 protease fluorescence dose response” (2024)
Values joined by “and” are separate entries in the source; they are usually repeats but may differ in a detail not shown here. Equal entries are not always repeated.

Key:
Genome polyprotein [1] = target: T1, Genome polyprotein (dengue virus type 2, UniProt P29990); type: functional, Thailand/16681/1984
Genome polyprotein [2] = target: T1, Genome polyprotein; type: functional, Thailand/16681/1984; remark: listed apart in the source

T1 sequence (P29990 1346-1475 limits assumed): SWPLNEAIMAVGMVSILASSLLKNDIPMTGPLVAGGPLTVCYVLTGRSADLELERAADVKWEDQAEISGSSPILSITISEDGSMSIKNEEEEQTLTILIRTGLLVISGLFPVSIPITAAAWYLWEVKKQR
T1 sequence (P29990 1476-2093 limits assumed): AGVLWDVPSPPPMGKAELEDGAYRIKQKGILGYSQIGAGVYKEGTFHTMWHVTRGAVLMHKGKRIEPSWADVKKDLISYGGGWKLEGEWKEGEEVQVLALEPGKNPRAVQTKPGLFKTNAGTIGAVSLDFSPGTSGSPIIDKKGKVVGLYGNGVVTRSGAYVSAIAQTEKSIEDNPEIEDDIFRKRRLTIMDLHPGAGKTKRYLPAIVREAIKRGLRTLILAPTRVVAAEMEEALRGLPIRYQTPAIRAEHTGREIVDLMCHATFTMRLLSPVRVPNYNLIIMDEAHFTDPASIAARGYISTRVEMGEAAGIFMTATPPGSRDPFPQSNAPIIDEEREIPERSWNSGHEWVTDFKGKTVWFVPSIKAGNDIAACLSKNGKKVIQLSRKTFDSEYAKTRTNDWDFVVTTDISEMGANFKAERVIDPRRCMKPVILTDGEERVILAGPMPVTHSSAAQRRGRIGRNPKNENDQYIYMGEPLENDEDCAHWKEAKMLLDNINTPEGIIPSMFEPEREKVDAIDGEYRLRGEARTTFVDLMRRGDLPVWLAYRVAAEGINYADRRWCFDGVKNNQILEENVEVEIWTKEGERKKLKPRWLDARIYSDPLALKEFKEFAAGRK

| SMILES | IC50 (Genome polyprotein [1]) | IC50 (Genome polyprotein [2]) |
| --- | --- | --- |
| O=C(Nc1cc(Cl)cc(C(=O)N2CCC[C@H](c3nnn[nH]3)C2)c1)OCc1ccccc1 | > 99.5 µM | > 100 µM |
| CSCCNC(=O)[C@H](Nc1ccc2c(c1)CNC2)c1cc(Cl)cc(C2CC2)c1 | > 99.5 µM | > 100 µM |
| O=C(Nc1ccc2c(c1)CNC2)c1ccccn1 | > 99.5 µM | > 100 µM |
| CNC(=O)[C@H](Nc1ccc(-c2nnn[nH]2)cc1)c1cc(Cl)cc(C2CC2)c1 | > 99.5 µM | > 100 µM |
| O=C(Nc1cc(Cl)cc(C(=O)Nc2ccc([C@]34CNC[C@H]3C4)cc2)c1)OCc1ccccc1 | > 99.5 µM | > 100 µM |
| COC(=O)c1cc(Br)cc2c(Cc3ccc(-c4nnn[nH]4)cc3)c[nH]c12 | 20.3 µM | 13.6 µM |
| CNC(=O)C[C@H](Nc1cccc(F)n1)c1cc(Cl)cc(Br)c1 | > 99.5 µM | > 100 µM |
| OCCCCCc1nc(-c2ccc(Br)o2)no1 | > 99.5 µM | > 100 µM |
| C[C@@]1(c2cc(Cl)cc(NC(=O)OCc3ccccc3)c2)C[C@H]1c1cccc(CN)c1 | 88.1 µM | > 100 µM |
| O=C(Nc1ccc2c(c1)CNC2)c1cc(Cl)ccc1-n1ccnc1 | > 99.5 µM | > 100 µM |
| CC(C)(CNCc1c[nH]c2ccccc12)c1cccnc1 | > 99.5 µM | > 100 µM |
| CCCc1sc(C(=O)Nc2cccc(-c3nnn[nH]3)c2)cc1CC | 45.8 µM | 19 µM and 20.6 µM |
| Cc1ccc(-n2nc(C(=O)Nc3cccc(CN)c3)ccc2=O)cc1Cl | > 99.5 µM | > 100 µM |
| C=CC[C@H](Nc1cncc(Cl)c1)c1cccc(-c2nn[nH]n2)c1 | > 99.5 µM | > 100 µM |
| NC(=O)c1cccc(NC(=O)c2cc(Cl)cc(NC(=O)OCc3ccccc3)c2)c1 | > 99.5 µM | > 100 µM |
| CC(C)(C)NS(=O)(=O)c1cccc(C(=O)Nc2cccc(CN)c2)c1 | > 99.5 µM | > 100 µM |
| Cc1c(C(=O)NCc2ccc(CN)cc2)cc(C2CC2)n1C | > 99.5 µM | > 100 µM |
| Cc1c(C(=O)Nc2cc(-c3cccnc3)ccn2)cc(C#N)n1C | 57.7 µM | 53.3 µM and 62.1 µM |
| O=C(Nc1cccc(-c2nnn[nH]2)c1)c1cc(Cl)cc2[nH]ncc12 | > 99.5 µM | > 100 µM |
| CCN(C)S(=O)(=O)N1CCC([C@H](NC(=O)OCc2ccccc2)C(=O)Nc2cccc(CN)c2)CC1 | > 99.5 µM | > 100 µM |
| COC(=O)c1cc(NC(=O)OCc2ccccc2)cc(C(=O)Nc2cccc(CN)c2)c1 | > 99.5 µM | > 100 µM |
| COCc1cc(Cl)cc(C(=O)Nc2ccc3c(c2)CNC3)c1 | > 99.5 µM | > 100 µM |
| Clc1cc(CNc2ncc3c(n2)CNC3)c2cn[nH]c2c1 | > 99.5 µM | > 100 µM |
| CO[C@]1(C(=O)Nc2ccc3c(c2)C(=O)OC3)CCCNC1 | > 99.5 µM | > 100 µM |

| SMILES | IC50 (Genome polyprotein [1]) | IC50 (Genome polyprotein [2]) |
| --- | --- | --- |
| CCc1nc2ccc(Cl)cc2n1Cc1ccc2c(c1)CNC2 | > 99.5 µM | > 100 µM |
| COC(=O)c1cc(Cl)cc(S(=O)(=O)Nc2cccc(-c3nnn[nH]3)c2)c1F | > 99.5 µM | > 100 µM |
| NCc1cccc(NC(=O)c2cccn3cc(CN4CCCC4)nc23)c1 | > 99.5 µM | > 100 µM |
| O=C(NC1CCOCC1)[C@H](Nc1ccc2c(c1)CNC2)c1cc(Cl)cc2[nH]ncc12 | > 99.5 µM | > 100 µM |
| CCn1c(=O)c(N2CC[C@H](CO)C2)nc2cc(C(=O)O)ccc21 | > 99.5 µM | > 100 µM |
| CCOc1cccc(-c2ccc(S(=O)(=O)Nc3cc(F)c(Cl)cc3C(=O)O)cc2)c1 | 5.09 µM | 7.19 µM |
| O=C(NC[C@H]1CCCO1)[C@H](Nc1ccc2c(c1)CNC2)c1cc(Cl)cc(C2CC2)c1 | > 99.5 µM | > 100 µM |
| O=C(Nc1cc(Cl)cc(C(=O)NC2(c3nnn[nH]3)CC2)c1)OCc1ccccc1 | > 99.5 µM | > 100 µM |
| O=C(Nc1cc2c(c(-c3ccnnc3)c1)CNC2)c1cc(Cl)cc2[nH]ncc12 | > 99.5 µM | 98.4 µM |
| CNC(=O)[C@H](Nc1ccc2c(c1)CNC2)c1cc(Cl)cc2c1OCC2 | > 99.5 µM | > 100 µM |
| C=CC[C@H]1NCc2cc(NC(=O)c3cccc4c3CC(=O)N4)ccc21 | > 99.5 µM | > 100 µM |
| CC(C)Oc1cc(CN)ccc1NS(=O)(=O)c1ccc(Oc2ccccc2Cl)cc1 | > 99.5 µM | > 100 µM |
| CNC(=O)C[C@H]1CC[C@@H](NC(=O)c2cccc3c2CC(=O)N3)CC1 | > 99.5 µM | > 100 µM |
| O=C1CCCc2cc(C(=O)Nc3ccc4c(c3)CNC4)ccc2N1 | > 99.5 µM | > 100 µM |
| O=C(Nc1ccc2c(c1)CN[C@H]2CCO)c1cc(F)cc2[nH]ncc12 | 50.8 µM | 23.9 µM and 29.9 µM |
| O=C(Nc1cc(-c2cccnc2)ccn1)c1cc(C2CC2)[nH]n1 | > 99.5 µM | > 100 µM |
| O=C(Nc1ccc2c(c1)CN[C@H]2C(=O)O)c1cc(F)cc2[nH]ncc12 | 71.1 µM | 79.4 µM and > 100 µM |
| NCc1cccnc1NS(=O)(=O)c1ccc(Oc2ccccc2Cl)cc1 | > 99.5 µM | > 100 µM |
| c1ccc(N2CCN(Cc3c[nH]c4ccccc34)CC2)nc1 | > 99.5 µM | > 100 µM |
| CNC(=O)[C@]1(Nc2ccc3c(c2)CNC3)C(=O)Nc2c(OC)cc(Br)cc21 | > 99.5 µM | > 100 µM |
| NCc1cccc(NC(=O)c2cc(Cl)cc3[nH]ncc23)c1 | > 99.5 µM | > 100 µM |
| N[C@H]1CCc2cc(NC(=O)c3cc(Cl)cc(NC(=O)OCc4ccccc4)c3)ccc21 | 44.7 µM | > 100 µM |
| O=C(Nc1ccc2c(c1)CNC2)c1ccc2nc(O)sc2c1 | > 99.5 µM | > 100 µM |
| Cc1c(C(=O)Nc2cc(-c3cccnc3)ccn2)cc(CC(C)(C)C)n1C | > 99.5 µM | > 100 µM |

| SMILES | IC50 (Genome polyprotein [1]) | IC50 (Genome polyprotein [2]) |
| --- | --- | --- |
| Cc1ccc2[nH]ncc2c1C(=O)Nc1ccc2c(c1)CNC2 | > 99.5 µM | > 100 µM |
| O=C(O)c1cc2cc(-c3cc(Cl)cc4c3O[C@H](CO)C4)ccc2[nH]1 | > 99.5 µM | > 100 µM |
| CC(C)NC(=O)[C@H](Nc1ccc2c(c1)CN(CC(F)F)C2)c1cc(Cl)cc2[nH]ncc12 | > 99.5 µM | > 100 µM |
| NCc1cccc(NC(=O)c2cccc(Oc3ccc(Cl)c(Cl)c3)n2)c1 | 95.6 µM | > 100 µM |
| O=C(Nc1cc(Cl)cc(N[C@H](C#CCO)c2ccc(-c3nn[nH]n3)cc2)c1)OCc1ccccc1 | 26.4 µM | 11.7 µM |
| NCc1cccc([C@@H]2C[C@H]2c2cc(Cl)cc(NC(=O)OCc3ccccc3)c2)c1 | 30.3 µM and 50.1 µM | > 100 µM |
| Cc1cc(C(=O)Nc2cccc(CN)c2)c(NC(=O)[C@H]2CCCO2)s1 | > 99.5 µM | > 100 µM |
| CC(C)(C)c1cc(Br)cc(C(=O)Nc2ccc3c(c2)CNC3)c1 | > 99.5 µM | > 100 µM |
| NCc1cc(CO)cc([C@H]2C[C@@H]2c2cc(Cl)cc(NC(=O)OCc3ccccc3)c2)c1 | 29.7 µM | > 100 µM |
| Clc1ccc2c(CN3CCC(c4c[nH]c5ncccc45)CC3)c[nH]c2c1 | > 99.5 µM | > 100 µM |
| O=C(Nc1cc(Cl)cc(C(=O)Nc2nccc([C@H]3CCCCN3)n2)c1)OCc1ccccc1 | > 99.5 µM | > 100 µM |
| Brc1cnc(Sc2ncc[nH]2)nc1 | > 99.5 µM | > 100 µM |
| O=C1COc2cc(C(=O)Nc3ccc4c(c3)CNC4)ccc2N1 | > 99.5 µM | > 100 µM |
| Cc1c(C(=O)Nc2cc(-c3cccnc3)ccn2)cnn1C1CC1 | > 99.5 µM | > 100 µM |
| O=C(Cc1ccc2ncsc2c1)Nc1ccc2c(c1)CNC2 | > 99.5 µM | > 100 µM |
| Cc1[nH]c(-c2ccccc2)cc1C(=O)Nc1cc(-c2cccnc2)ccn1 | > 99.5 µM | > 100 µM |
| Cn1cc2cc(Cl)cc(C(=O)Nc3ccc4c(c3)CNC4)c2n1 | > 99.5 µM | 69.9 µM and > 100 µM |
| O=C(O)COc1ccc(Cl)cc1[C@H](Nc1ccc2c(c1)CNC2)C(=O)NCC(F)F | > 99.5 µM | > 100 µM |
| O=C(Nc1ccc2c(c1)C(=O)OC2)c1cc(CC2CCNCC2)ccc1F | > 99.5 µM | > 100 µM |
| Cc1c(C(=O)Nc2cccc([C@H]3CCOC3)c2)cc(C2CC2)n1C | > 99.5 µM | > 100 µM |
| CNC(=O)C[C@H](Nc1ccccn1)c1cc(Cl)cc(CN)c1 | > 99.5 µM | > 100 µM |
| Cc1c(C(=O)Nc2ccc3c(c2)CNCCO3)cc(C2CC2)n1C | > 99.5 µM | > 100 µM |
